# Experimental data published in paper PMC9494960, “Antiamoebic Activity of Imidazothiazole Derivatives against Opportunistic Pathogen Acanthamoeba castellanii” (Antibiotics, 2022).
# Experiments:
# [1] = system: A. castellanii genotype T4 (ATCC 50492) trophozoites; assay: Amoebicidal assay (Trypan blue exclusion, haemocytometer counting); type: cell-based, Acanthamoeba castellanii; conditions: for Amoebicidal Activity Inhibition % ± SEM: 50 µM concentration, Supplementary Table S1; for amoebicidal effects / antiamoebic activity against A. castellanii: 50 µM, 24 h, 30 °C; for IC50: tested at 12.5, 25, 50 and 100 µM against A. castellanii
# Protocol: A. castellanii genotype T4 (ATCC 50492) trophozoites were used in this study. The amoebae were axenically cultivated at 30 °C in T-75 cm^3 culture flask using a proteose-peptone yeast extract-glucose (PYG) broth culture. Upon confluency, amoeba cultured flask was placed on ice for 10 min followed by gently tapping to dislodge the adhered trophozoites. Next, culture was centrifuged at 3000× g for 5 min. The supernatant was discarded and the pellet was re-suspended in 1 mL of Roswell Park Memorial Institute (RPMI) media. Finally, amoebae were counted via haemocytometer microscopically and the desired initial inoculum (5 × 10^5) was adjusted and used in different assays. Different molecules were tested against A. castellanii to examine their antiamoebic effects as previously reported. Briefly, A. castellanii (5 × 10^5) were incubated with 50 µM of the tested compounds for 24 h at 30 °C with a final assays volume of 0.5 mL in a 24-well plate. For controls, amoebae cultured in RPMI alone and with 0.25% sodium dodecyl sulfate (SDS) was taken as negative and positive control, respectively. Finally, each well was stained with Trypan blue (0.1%) and viable amoebae trophozoites were enumerated by haemocytometer. In some trails, these compounds were tested at different concentrations (12.5, 25, 50 and 100 µM) to determine their 50% inhibitory concentration (IC50) against A. castellanii.
# [2] = system: A. castellanii binding to HeLa cells; assay: Adhesion assay: amoebae binding to human cells; type: cell-based, Acanthamoeba castellanii; conditions: amoebae pre-treated with 50 µM for 2 h; 60 min on HeLa monolayer
# Protocol: Adhesion assays were performed to determine how the tested molecules affect the binding capability of amoebae to human cells. Firstly, A. castellanii (5 ×10^5) trophozoites were treated with 50 µM of the compounds in serum-free RPMI medium at 30 °C for 2 h. Next, pre-treated amoebae were centrifuged at 3000× g for 5 min and re-suspended the amoeba in 200 µL of RPMI medium. The total assay volume including pre-treated amoeba was transferred to a confluent HeLa cell monolayer cultured in 96-well plates. For control, amoebae trophozoites alone were added to HeLa cell monolayer. The plates were incubated for 60 min at 37 °C with 5% CO2 and 95% humidity and amoebae (unbound) were then counted by haemocytometer. Percent bound amoebae was calculated using the following formula: % amoebae (bound) = 100 − amoebae (unbound)(1)
# [3] = system: A. castellanii trophozoites; assay: Encystation assay; type: cell-based, Acanthamoeba castellanii; conditions: 50 µM, 16% glucose, 30 °C, 48–72 h; negative control 100%
# Protocol: Encystation assays were performed to determine the effects of the tested compounds to prevent the differentiation of A. castellanii trophozoites into the cyst form and 50 µM of the tested compounds were utilized. Briefly, A. castellanii (1 × 10^6) trophozoites were incubated with these compounds with 16% filter-sterilized glucose (as encystation medium) at 30 °C 48–72 h. A. castellanii cultured alone in 16% glucose was taken as negative control. After this incubation, 0.1% sodium dodecyl sulfate (SDS) was added to each well and agitated the plate for 20 min. The SDS resistant cysts were enumerated using a haemocytometer and data was recoded.
# human cell lines = assay: MTT assay (EC50/CC50 and MNTD90); type: cell-based; conditions: for CC50: 50% effective/cytotoxic concentration (CC50), tested at 12.5–100 µM; for EC90: Maximum Non-Toxic Dose, read-out: MNTD/EC90
# [4] = system: A. castellanii-mediated HeLa cell death; assay: Amoeba-mediated host cell cytotoxicity (cytopathogenicity assay, LDH); type: cell-based, Acanthamoeba castellanii; conditions: amoebae pre-treated with 50 µM for 2 h; HeLa overnight; negative control amoeba + cells 100%
# Protocol: Cytopathogenicity assays were accomplished to determine the amoeba-mediated host cell death. A. castellanii (5 × 10^5) trophozoites were treated with 50 µM of the tested molecules at 30 °C for 2 h. Culture containing pre-treated amoebae was centrifuged at 3000× g for 5 min and pellet was re-suspended in 200 µL of serum free RPMI. The whole assay volume with pre-treated amoebae was transferred to HeLa cell monolayer cultured in a 96 well plates. Next, the plates were kept for overnight at 37 °C with 95% humidity and 5% CO2. Finally, amoeba-mediated host cell cytotoxicity was evaluated indirectly by measuring the amount of LDH enzyme released into cell media by damaged cells, as reported earlier.
# V600E-B-RAF = system: V600E-B-RAF; set-up: method as in PMID 32962435; conditions: cited from earlier work
# C-RAF = system: C-RAF; set-up: method as in PMID 32962435; conditions: cited from earlier work
# A. castellanii = system: A. castellanii; set-up: method as in PMID 34959694; conditions: cited from earlier work
SMILES,Amoebicidal Activity Inhibition % ± SEM [1],amoebicidal effects / antiamoebic activity against A. castellanii [1],IC50 [1],inhibition of amoebae binding to human cells [2],encystation blocked (trophozoites prevented from converting into cysts) [3],CC50 (human cell lines),EC90 (human cell lines),amoeba-mediated host cell death reduced up to [4],inhibitory effects against V600E-B-RAF kinase (V600E-B-RAF),inhibitory effects against C-RAF kinase (C-RAF),concentration that prevented excystment in A. castellanii (A. castellanii)
O=C(NCCNc1nccc(-c2c(-c3ccc(F)cc3)nc3sccn23)n1)c1cc(C(F)(F)F)cc(C(F)(F)F)c1 [Compound 1i],55.05% ± 1.25%,55%,43.1 µM,42%,60%,1410 µM,90.9 µM,45%,–,–,–
COc1cccc(-c2nc3sccn3c2-c2ccnc(NCCNC(=O)Nc3cccc(C(F)(F)F)c3)n2)c1 [Compound 1m],69.17% ± 2.39%,70%,30 µM,61%,72%,313 µM,29.5 µM,33%,modest inhibitory effects,modest inhibitory effects,–
O=C(NCCNc1nccc(-c2c(-c3cccc(O)c3)nc3sccn23)n1)c1ccc(N2CCOCC2)c(C(F)(F)F)c1 [Compound 1zb],67.00% ± 3.19%,67%,32.4 µM,55%,78%,434 µM,24.1 µM,46%,–,–,–
CNCC(=O)OCc1cccnc1N(C)C(=O)OC(C)[n+]1cnn(C[C@](O)(c2cc(F)ccc2F)[C@@H](C)c2nc(-c3ccc(C#N)cc3)cs2)c1.O=S(=O)([O-])O (stereo partly drawn) [isavuconazonium sulfate],–,–,–,–,–,–,–,–,–,–,136 µM
